Test results from EP1541559A1, “5-SUBSTITUTED ISOQUINOLINE DERIVATIVE” (Asahi Kasei Pharma Corporation, priority 2002, dated 2004).
Where a name gives a salt, the structure may show the parent alone. Read-outs that look alike come from different tables or passages of the source.

Legend:
[1] = tested on: myosin regulatory light chain; experiment: Action on amount of phosphorylated myosin regulatory light chain in the cells (Test Example 1); assay type: cell-based, human; conditions: neutrophils of healthy volunteers, reaction with test compound at 25°C for 5 minutes, read-out: Inhibition of myosin regulatory light chain phosphorylation (IC50: µM)
Procedure: The neutrophils were washed with PBS(-) and resuspended in Hanks' Balanced Salt Solution (HBSS+, Gibco) to prepare a cell suspension (8 x 10^6/ml). The cell suspension was diluted to 5 x 10^6/ml, introduced into Eppendorf tubes in a volume of 0.4 ml each, then 0.1 ml each of solutions of a test compound at various concentrations were added to the suspension and allowed to react at 25°C for 5 minutes. After the reaction, 0.1 ml of trichloroacetic acid solution was added to each reaction, the reaction mixture was gently shaken and centrifuged at 12,000 rpm (4°C, 5 minutes), and the supernatant was removed. Subsequently, 3 μl of 1 M Tris solution was added to the residue, the mixture was further mixed with 50 μl of extraction buffer (8 M urea, 0.02% 2-mercaptoethanol, 0.002% bromophenol blue) and left stand at room temperature for 1 hour. Then, the reaction mixture was loaded on a spin column (0.45 μm, Millipore) to remove the insoluble solids and a sample buffer for SDS polyacrylamide gel electrophoresis (25 mM, Tris-HCl pH 6.8, 2.5% 2-mercaptoethanol, 2% sodium dodecylsulfate, 5% sucrose, 0.002% bromophenol blue as final concentrations) was added, and 10 μl of each sample was subjected to electrophoresis. […] J. Physiol., 274, […]-[…] (1998)), which specifically recognize the phosphorylated myosin regulatory light chain, and donkey anti-mouse IgG (Chemicon) conjugated with horseradish peroxidase (HRP-labeled). The band of the phosphorylated myosin regulatory light chain was detected on a film by using ECL Plus Kit (Amersham Pharmacia Biotech). This band was subjected to quantification using a densitometer. By using this value, the inhibitory ratio (%) for phosphorylation of the myosin regulatory light chain was calculated by using the following equation.

Neutrophils = experiment: Neutrophil migration inhibitory action, Boyden Chamber, FMLP (Test Example 5); assay type: cell-based, human; conditions: FMLP (1 µM), migration at 37°C for 30 minutes, read-out: Neutrophil migration inhibition IC50
Procedure: Neutrophils were isolated from 50 to 100 ml of peripheral blood collected from healthy donors by the method described in Test Example 1 to obtain a cell suspension (8 x 10^6/ml). Subsequently, solutions of a test compound at various concentrations were introduced into wells of a 96-well plate in a volume of 125 µl per well, the cell suspension of an equivalent volume was added to it and the plate was preincubated at room temperature for 5 minutes. During the preincubation, FMLP (1 µM, Sigma) solution was added to the lower chamber to set Boyden Chamber, the preincubated cell suspension was added to the upper chamber in a volume of 200 µl per well, and the cells were allowed to migrate at 37°C under 5% carbon dioxide for 30 minutes. The filter after the migration was collected, and the non-migrated cells adhered to the surface that faced the upper chamber were carefully wiped off. Then, the migrated cells on the back surface were stained with DifQuick dye solution (International Reagents), washed with water and dried, and then absorbance was measured at 595 nm. The inhibition ratio against migration (%) of a test compound was calculated by using the following equation: Migration inhibition ratio (%) = (1 -Absorbance of the group with addition of test compound /Absorbance of the group without addition of test compound) x 100 [formula]

thoracic aorta = experiment: Vasoconstriction inhibitory action on aorta rings constricted with phenylephrine (Test Example 2); parameters: species or system Rats (Wistar, 11-week old); conditions: for vasoconstriction inhibitory action: result in words, aorta constricted with phenylephrine (1 µM)
Source text: Rats (Wistar, 11-week old) were bleeded to death and laparotomized to take out the thoracic aorta.

Japanese white rabbit = experiment: Intraocular pressure reducing action (Test Example 4); assay type: in vivo; conditions: result in words
Procedure: A Japanese white rabbit having a body weight of about 2 kg was placed in a positioner and naturalized for one week before the experiment. An ophthalmologic local […] (Benoxil) was administered to the left eye, and then intraocular pressure was measured by using a tonometer (Classic 30, Solan). The initial value of the intraocular pressure was measured, then 50 μl of a test compound (1% aqueous solution) was dropped to the left eye, and after 2 hours, the intraocular pressure was measured. The intraocular pressure reducing action of the test compounds is shown in Table 7 mentioned below as ratios (%) of reduction of intraocular pressure based on the initial value of the intraocular pressure.

[2] = Homo sapiens, Neutrophil, 0.5 h
[3] = Homo sapiens, Neutrophil, 5 min

Row | Compound | IC50 (Neutrophils; [2]) | IC50 [1, 3] | IC50 ([1]; hydrochloride) | also measured
1 | 4-(4-Cyano-5-isoquinolyl)aminopiperidine hydrochloride [Example 143] | – | – | – | IC50 [1]: ≤ 40 µM
2 | NCCCN(CCCCc1ccccc1)S(=O)(=O)c1cccc2cnccc12 [Example 4, N-[(5-Isoquinolyl)sulfonyl]-N-(4-phenylbutyl)-1,3-propylenediamine hydrochloride] | 1 to 10 µM | 30 µM | – | –
3 | NCCCN(CCS(=O)(=O)c1ccccc1)S(=O)(=O)c1cccc2cnccc12 [Example 6, N-[(5-Isoquinolyl)sulfonyl]-N-[2-(phenylsulfonyl)ethyl]-1,3-propylenediamine hydrochloride] | 1 to 10 µM | 20 µM | – | –
4 | NCCN(CCS(=O)(=O)c1ccccc1)S(=O)(=O)c1cccc2c(N)nccc12 [Example 9, N-[(1-Amino-5-isoquinolyl)sulfonyl]-N-[2-(phenylsulfonyl)ethyl]ethylenediamine hydrochloride] | 1 to 10 µM | 15 µM | – | –
5 | Cl.NCCCN(CCS(=O)(=O)c1ccccc1)S(=O)(=O)c1cccc2c(O)nccc12 [Example 13, N-[(1-Hydroxy-5-isoquinolyl)sulfonyl]-N-[2-(phenylsulfonyl)ethyl]-1,3-propylenediamine hydrochloride] | 1 to 10 µM | 20 µM | – | vasoconstriction inhibitory action (thoracic aorta): significant vasoconstriction inhibitory action
6 | NCCCN(CCCc1ccccc1)S(=O)(=O)c1cccc2c(O)nccc12 [Example 14, N-[(1-Hydroxy-5-isoquinolyl)sulfonyl]-N-(3-phenylpropyl)-1,3-propylenediamine hydrochloride] | 1 to 10 µM | 20 to 40 µM | – | –
7 | c1cc(NCC2CCCNC2)c2ccncc2c1 (stereo not drawn) [Example 22, 3-(5-Isoquinolyl)aminomethylpiperidine hydrochloride] | – | ≤ 40 µM | – | –
8 | NCCN(CCCc1ccccc1)S(=O)(=O)c1cccc2cnccc12 [Example 30, N-[(5-isoquinolyl)sulfonyl]-N-(3-phenylpropyl)ethylenediamine] | 1 to 10 µM | 20 to 40 µM | – | –
9 | CSc1cncc2cccc(NC3CCNCC3)c12.Cl [Example 105, 4-(4-Methylthio-5-isoquinolyl)aminopiperidine hydrochloride] | – | ≤ 40 µM | – | vasoconstriction inhibitory action (thoracic aorta): significant vasoconstriction inhibitory action
10 | Cl.NC1CCC(Nc2cccc3cncc(Br)c23)CC1 (stereo not drawn) [Example 107, N-(4-Bromo-5-isoquinolyl)-1,4-cyclohexanediamine hydrochloride] | – | ≤ 40 µM | ≤ 20 µM | intraocular pressure reducing activity (Japanese white rabbit): significant intraocular pressure reducing activity
11 | Cl.Oc1nccc2c(NC3CCNCC3)cccc12 [Example 115, 4-(1-Hydroxy-5-isoquinolyl)aminopiperidine hydrochloride] | – | – | – | intraocular pressure reducing activity (Japanese white rabbit): significant intraocular pressure reducing activity
12 | NCCCN(CCCc1cccc(C(=O)O)c1)S(=O)(=O)c1cccc2cnccc12 [Example 128, N-[(5-Isoquinolyl)sulfonyl]-N-[3-(3-carboxy)phenylpropyl]-1,3-propylenediamine hydrochloride] | – | – | ≤ 20 µM | IC50 (Neutrophils): ≤ 40 µM
13 | COC(=O)c1ccc(CCCN(CCCN)S(=O)(=O)c2cccc3cnccc23)cc1 [Example 130, N-[(5-Isoquinolyl)sulfonyl]-N-[3-(4-methoxycarbonyl)phenylpropyl]-1,3-propylenediamine hydrochloride] | – | – | ≤ 20 µM | –
14 | COC(=O)c1cccc(CCCN(CCCN)S(=O)(=O)c2cccc3cnccc23)c1 [Example 131, N-[(5-Isoquinolyl)sulfonyl]-N-[3-(3-methoxycarbonyl)phenylpropyl]-1,3-propylenediamine hydrochloride] | – | – | ≤ 20 µM | IC50 (Neutrophils): ≤ 40 µM
15 | CCc1cncc2cccc(O[C@H]3CC[C@H](N)CC3)c12 [Example 138, Trans-4-[(4-ethyl-5-isoquinolyl)oxy]cyclohexylamine hydrochloride] | – | ≤ 40 µM | ≤ 20 µM | –
16 | Nc1nccc2c(NC3CCNCC3)cccc12 [Example 142, 4-(1-Amino-5-isoquinolyl)aminopiperidine hydrochloride] | – | ≤ 40 µM | ≤ 20 µM | –
17 | N#Cc1cncc2cccc(O[C@H]3CC[C@H](NCCO)CC3)c12 [Example 156, Trans-1-[(4-cyano-5-isoquinolyl)oxy]-4-[(2-hydroxyethyl)amino]cyclohexane hydrochloride] | – | ≤ 40 µM | ≤ 20 µM | –
18 | CC1CNCCN1S(=O)(=O)c1cccc2cnccc12 (stereo not drawn) [Example H-7, 1-(5-isoquinolinesulfonyl)-2-methylpiperazine, reference compound] | – | – | – | inhibition at 1 µM (thoracic aorta; Rattus norvegicus, read-out: Vasoconstriction inhibitory action (relaxation ratio) (%)): 22%

Further lines, with some results ahead:

Row | IC50 (Neutrophils; [2]) | Compound | IC50 [1, 3] | IC50 ([1]; hydrochloride) | also measured
19 | 10 to 40 µM | NCCCNc1cccc2cnccc12 [Example 16, N-(5-Isoquinolyl)-1,3-propylenediamine hydrochloride] | 20 to 40 µM | – | –
20 | 10 to 40 µM | NCCCCNc1cccc2cnccc12 [Example 18, N-(5-Isoquinolyl)-1,4-butylenediamine hydrochloride] | 20 to 40 µM | – | –
21 | 10 to 40 µM | c1cc(NCC2CCNCC2)c2ccncc2c1 [Example 21, 4-(5-Isoquinolyl)aminomethylpiperidine hydrochloride] | ≤ 40 µM | ≤ 20 µM | –
22 | 1 to 10 µM | N[C@H]1CC[C@@H](Nc2cccc3cnccc23)CC1 [Example 23, Cis-N-(5-Isoquinolyl)-1,4-cyclohexanediamine hydrochloride] | 1 to 20 µM | – | –
23 | 1 to 10 µM | N[C@H]1CC[C@H](Nc2cccc3cnccc23)CC1 [Example 24, Trans-N-(5-isoquinolyl)-1,4-cyclohexanediamine hydrochloride] | 1 to 20 µM | – | –
24 | 10 to 40 µM | NC1CCCC(Nc2cccc3cnccc23)C1 (stereo not drawn) [Example 25, N-(5-Isoquinolyl)-1,3-cyclohexanediamine hydrochloride] | 20 to 40 µM | – | –
25 | 10 to 40 µM | NCc1cccc(CNc2cccc3cnccc23)c1 [Example 26, N-(5-Isoquinolyl)-1,3-xylylenediamine hydrochloride] | 20 to 40 µM | – | –
26 | ≤ 40 µM | c1cc(OC2CCNCC2)c2ccncc2c1 [Example 27, 4-[(5-Isoquinolyl)oxy]piperidine hydrochloride] | 1 to 20 µM | – | –
27 | ≤ 40 µM | Fc1cncc2cccc(NC3CCNCC3)c12 [Example 104, 4-(4-Fluoro-5-isoquinolyl)aminopiperidine hydrochloride] | ≤ 40 µM | ≤ 20 µM | –
28 | ≤ 40 µM | C=Cc1cncc2cccc(NC3CCNCC3)c12.Cl [Example 112, 4-(4-Vinyl-5-isoquinolyl)aminopiperidine hydrochloride] | ≤ 40 µM | ≤ 20 µM | vasoconstriction inhibitory action (thoracic aorta): significant vasoconstriction inhibitory action
29 | ≤ 40 µM | Nc1cncc2cccc(O[C@H]3CC[C@H](N)CC3)c12 [Example 137, Trans-4-[(4-amino-5-isoquinolyl)oxy]cyclohexylamine hydrochloride] | ≤ 40 µM | ≤ 20 µM | –
30 | ≤ 40 µM | Cc1cnc(O)c2cccc(N[C@H]3CC[C@H](N)CC3)c12 [Example 160, Trans-N-(1-hydroxy-4-methyl-5-isoquinolyl)-1,4-cyclohexanediamine hydrochloride] | ≤ 40 µM | ≤ 20 µM | –
